Test results as given in patent US9376392B2, “2-(tert-butoxy)-2-(7-methylquinolin-6-yl) acetic acid derivatives for treating AIDS” (Gilead Sciences, Inc., priority 2012, dated 2016).

Test system: HIV-IIIb (MT-4 cells)
Experiment: Test A: Antiviral Assays in MT4 Cells
Type: cell-based
Settings: MT-4 cells infected with HIV-IIIb, 5 days of incubation, CellTiter-Glo readout

SMILES | EC50 [µM] | EC50 (MT4, 120 h) [µM]
CCCC(C)(C)O[C@H](C(=O)O)c1c(C)cc2nc(C)ccc2c1-c1ccc2c3c(ccnc13)CCO2 (atropisomer, axis not shown) [Example 40, (2S)-2-((S)-5-(2,3-Dihydropyrano[4,3,2-de]quinolin-7-yl)-2,7-dimethylquinolin-6-yl)-2-(2-methylpentan-2-yloxy)acetic acid] | 2.76 | 
Cc1cccc(-n2c(=O)ccc3c(-c4ccc5c6c(ccnc46)CCO5)c([C@H](OC(C)(C)C)C(=O)O)c(C)cc32)c1 (atropisomer, axis not shown) [Example 35, (S)-2-tert-Butoxy-2-((R)-5-(2,3-dihydropyrano[4,3,2-de]quinolin-7-yl)-7-methyl-2-oxo-1-m-tolyl-1,2-dihydroquinolin-6-yl)acetic acid] |  | 1.47
CC(=O)Nc1ccc2c(-c3ccc4c5c(ccnc35)CCO4)c([C@H](OC(C)(C)C)C(=O)O)c(C)cc2n1 (atropisomer, axis not shown) [Example 48, (S)-2-((R)-2-Acetamido-5-(2,3-dihydropyrano[4,3,2-de]quinolin-7-yl)-7-methylquinolin-6-yl)-2-tert-butoxyacetic acid] |  | 0.361
